From ChEMBL document CHEMBL1139745, “Synthesis and biological study of 4-aminopyrimidine-5-carboxaldehyde oximes as antiproliferative VEGFR-2 inhibitors” (Bioorg Med Chem Lett, 2006)

What was measured:
[1] = tested on: HeLa; experiment: Antiproliferative activity against HeLa cells; format: functional, cell-based; settings: Homo sapiens
[2] = tested on: HCT-116; experiment: Antiproliferative activity against HCT116 cells; format: functional, cell-based; settings: Homo sapiens
[3] = tested on: A-375; experiment: Antiproliferative activity against A375 cells; format: functional, cell-based; settings: Homo sapiens
[4] = biological target: Vascular endothelial growth factor receptor 2 (Homo sapiens, UniProt P35968); experiment: Inhibition of VEGFR2
[5] = tested on: HeLa; experiment: Cell cycle arrest by accumulation at G2 phase in human HeLa cells at 62.5 nM; format: functional
[6] = tested on: HeLa; experiment: Cell cycle arrest in human HeLa cells by accumulation at G1 phase at 62.5 nM; format: functional
[7] = tested on: HeLa; experiment: Cell cycle arrest in human HeLa cells by accumulation at S phase at 62.5 nM; format: functional

Sequence of Vascular endothelial growth factor receptor 2 (P35968 whole entry): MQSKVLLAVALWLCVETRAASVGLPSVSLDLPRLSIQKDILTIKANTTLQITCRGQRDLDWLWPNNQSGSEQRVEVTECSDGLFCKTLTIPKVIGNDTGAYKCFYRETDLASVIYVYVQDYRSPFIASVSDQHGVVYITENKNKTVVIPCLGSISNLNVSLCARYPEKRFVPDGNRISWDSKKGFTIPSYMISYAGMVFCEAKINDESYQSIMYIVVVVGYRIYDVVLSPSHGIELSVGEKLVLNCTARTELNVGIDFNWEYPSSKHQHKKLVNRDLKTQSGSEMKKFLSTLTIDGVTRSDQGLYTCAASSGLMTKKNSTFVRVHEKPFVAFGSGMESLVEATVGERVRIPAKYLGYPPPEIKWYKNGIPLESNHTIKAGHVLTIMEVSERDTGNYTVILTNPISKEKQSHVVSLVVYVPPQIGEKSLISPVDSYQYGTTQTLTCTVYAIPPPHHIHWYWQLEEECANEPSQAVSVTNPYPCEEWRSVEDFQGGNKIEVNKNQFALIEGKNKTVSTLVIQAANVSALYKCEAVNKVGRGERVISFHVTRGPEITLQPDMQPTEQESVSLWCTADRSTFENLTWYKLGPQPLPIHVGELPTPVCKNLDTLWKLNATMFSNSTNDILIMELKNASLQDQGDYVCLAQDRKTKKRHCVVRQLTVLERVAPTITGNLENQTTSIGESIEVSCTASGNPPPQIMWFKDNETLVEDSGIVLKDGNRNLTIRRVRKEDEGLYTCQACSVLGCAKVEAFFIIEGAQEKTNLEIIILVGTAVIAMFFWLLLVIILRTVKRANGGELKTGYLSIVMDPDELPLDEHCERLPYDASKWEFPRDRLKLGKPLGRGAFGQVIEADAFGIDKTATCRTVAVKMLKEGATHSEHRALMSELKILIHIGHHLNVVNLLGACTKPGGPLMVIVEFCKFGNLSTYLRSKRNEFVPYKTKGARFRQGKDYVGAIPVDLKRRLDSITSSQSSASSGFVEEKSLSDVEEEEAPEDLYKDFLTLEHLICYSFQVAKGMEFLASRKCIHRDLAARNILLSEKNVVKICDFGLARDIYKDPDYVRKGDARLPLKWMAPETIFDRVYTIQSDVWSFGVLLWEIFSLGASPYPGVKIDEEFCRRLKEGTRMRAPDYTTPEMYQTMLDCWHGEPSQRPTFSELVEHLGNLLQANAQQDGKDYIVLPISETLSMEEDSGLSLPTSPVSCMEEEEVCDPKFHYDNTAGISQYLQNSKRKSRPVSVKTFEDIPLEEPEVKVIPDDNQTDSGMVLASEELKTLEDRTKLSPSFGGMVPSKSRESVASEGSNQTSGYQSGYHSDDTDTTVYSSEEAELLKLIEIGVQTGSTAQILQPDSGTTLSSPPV

| IC50 [1] | IC50 [2] | IC50 [3] | IC50 [4] | Structure (SMILES) | Activity [5] | Activity [6] | Activity [7] |
| --- | --- | --- | --- | --- | --- | --- | --- |
| 362 nM | 452 nM | 336 nM |  | Cc1cc2c(F)c(Oc3ncnc(N)c3/C=N/OCCCO)ccc2[nH]1 |  |  |  |
| 306 nM | 385 nM | 132 nM |  | CO/N=C/c1c(N)ncnc1Oc1ccc2[nH]cc(C)c2c1 |  |  |  |
| 4220 nM | 4610 nM | 2160 nM |  | Cc1cc2c(F)c(Oc3ncnc(N)c3/C=N/OCCN3CCCC3)ccc2[nH]1 |  |  |  |
| 406 nM | 323 nM | 372 nM |  | Cc1cc2c(F)c(Oc3ncnc(N)c3/C=N/OCCO)ccc2[nH]1 |  |  |  |
| 3430 nM | 2870 nM | 1820 nM |  | CO/N=C/c1c(N)ncnc1Oc1ccc2ncccc2c1 |  |  |  |
| 266 nM | 311 nM | 62 nM |  | Cc1cc2c(F)c(Oc3ncnc(N)c3/C=N/OCc3ccccc3)ccc2[nH]1 |  |  |  |
| 472 nM | 1140 nM | 492 nM | 33 nM | Cc1cc2c(F)c(Oc3ncnc(N)c3/C=N/O)ccc2[nH]1 |  |  |  |
| 1870 nM | 3520 nM | 783 nM |  | CO/N=C/c1c(N)ncnc1Oc1ccc2[nH]ccc2c1 |  |  |  |
| 401 nM | 365 nM | 492 nM |  | CO/N=C/c1c(N)ncnc1Oc1ccc2[nH]ccc2c1F |  |  |  |
| 375 nM | 749 nM | 326 nM |  | CO/N=C/c1c(N)ncnc1Oc1ccc2c(ccn2C)c1 |  |  |  |
| 32 nM | 36 nM | 27 nM |  | CCO/N=C/c1c(N)ncnc1Oc1ccc2[nH]c(C)cc2c1F |  |  |  |
| 388 nM | 386 nM | 356 nM |  | CO/N=C/c1c(N)ncnc1Oc1ccc2[nH]c(C)cc2c1 |  |  |  |
| 607 nM | 1000 nM | 446 nM |  | CCCCO/N=C/c1c(N)ncnc1Oc1ccc2[nH]c(C)cc2c1F |  |  |  |
| 2010 nM | 3010 nM | 345 nM |  | CNCCO/N=C/c1c(N)ncnc1Oc1ccc2[nH]c(C)cc2c1F |  |  |  |
| 382 nM | 422 nM | 327 nM |  | CO/N=C/c1c(N)ncnc1Oc1cc2cc[nH]c2cc1F |  |  |  |
| 346 nM | 438 nM | 300 nM |  | COCCCO/N=C/c1c(N)ncnc1Oc1ccc2[nH]c(C)cc2c1F |  |  |  |
| 42 nM | 40 nM | 21 nM |  | C=CCO/N=C/c1c(N)ncnc1Oc1ccc2[nH]c(C)cc2c1F | 99.76% | 0.24% | 0% |
| 1820 nM | 2620 nM | 886 nM |  | CO/N=C/c1c(N)ncnc1Oc1ccc2cccnc2c1 |  |  |  |
| 22700 nM | 16100 nM | 4920 nM |  | Cc1cc2c(F)c(Oc3ncnc(N)c3/C=N/OCC3CCCCC3)ccc2[nH]1 |  |  |  |
| 308 nM | 387 nM | 233 nM |  | COCCO/N=C/c1c(N)ncnc1Oc1ccc2[nH]c(C)cc2c1F |  |  |  |
| 40 nM | 30 nM | 28 nM |  | CCCO/N=C/c1c(N)ncnc1Oc1ccc2[nH]c(C)cc2c1F |  |  |  |
